Values after ≈ are worked out from the molar mass of the structure shown. Values joined by “and” are separate entries in the source; they are usually repeats but may differ in a detail not shown here. Equal entries are not always repeated.
How the values were obtained:
[1] = system: Enterococcus faecalis ATCC 29212; experiment: MIC, broth microdilution; assay type: cell-based; conditions: ATCC29212
Description: (§1) The Minimum Inhibitory Concentrations (MIC) of the extracts were determined using the broth microdilution method in accordance with the guidelines of the Clinical and Laboratory Standards Institute (CLSI) ([Clinical and Laboratory Standards Institute, 2020]). The procedure was originally based on the CLSI M27-A2 standard (1997) ([[…]]) for antifungal susceptibility testing, while the updated fourth edition (2017) was referenced to reflect current methodological standards ([[…]]).
(§2) The inocula of the tested bacterial and yeast strains were prepared following CLSI protocols, and the extracts were dissolved in DMSO to prepare stock solutions. Serial dilutions ranging from 1,250 to 0.06 μ g/mL were performed in Mueller-Hinton Broth (for bacterial strains) and RPMI-1640 medium (for yeast strains). MIC values of the extracts were determined against four g (−) bacterial strains (P. aeruginosa ATCC 27853, Escherichia coli ATCC 25922, Klebsiella pneumoniae ATCC 4352, Proteus mirabilis ATCC 14153), three g (+) bacterial strains (Staphylococcus aureus ATCC 29213, Staphylococcus epidermidis ATCC 12228, Enterococcus faecalis ATCC 29212), and three yeast strains (Candida albicans ATCC 10231, Candida parapsilosis ATCC 22019, Candida tropicalis ATCC 750).

[2] = system: Candida parapsilosis ATCC 22019; experiment: MIC, broth microdilution; assay type: cell-based; conditions: Lodderomyces parapsilosis, ATCC22019; C. parapsilosis ATCC 22019
Description: as §1, §2

[3] = system: Candida tropicalis ATCC 750; experiment: MIC, broth microdilution; assay type: cell-based; conditions: ATCC750, C. tropicalis ATCC 750
Description: as §1, §2

[4] = ABTS cation radical scavenging assay
Description: The ABTS cation radical scavenging assay was evaluated using 2,2′-azino-bis(3-ethylbenzothiazoline-6-sulfonic acid) according to the method developed by [Re et al. (1999)]. Extracts were dissolved in methanol at a concentration of 1 mg/mL to prepare the primary stock solutions. Aliquots of these solutions, in volumes of 2, 5, 10, and 20 μ L, were each diluted to a final volume of 40 μ L with methanol. Subsequently, 160 μ L of ABTS cation radical solution at a 7 mM concentration was introduced to each mixture. The reactions were allowed to proceed in darkness for 6 min, subsequent to which the absorbance was recorded at a wavelength of 734 nm. BHA, BHT, and α -TOC were used as positive control.

[5] = DPPH free radical scavenging assay
Description: The DPPH radical scavenging assay was evaluated using 1,1-diphenyl-2-picrylhydrazyl (DPPH) free radical according to the method developed by [Blois (1958)]. Extracts were dissolved in methanol at a concentration of 1 mg/mL to prepare the primary stock solutions. Aliquots of these solutions, in volumes of 2, 5, 10, and 20 μ L, were each diluted to a final volume of 40 μ L with methanol. Subsequently, 160 μ L of DPPH solution at a 0.1 mM concentration was introduced to each mixture. After the solutions were incubated at room temperature in the dark for 30 min, their absorbance was measured at a wavelength of 517 nm. BHA, BHT, and α -TOC were used as positive control.

[6] = Cupric reducing antioxidant capacity (CUPRAC); conditions: 450 nm
Description: The absorbance of this chelate formation is then quantified at a wavelength of 450 nm. In the CUPRAC method, according to the procedure developed by Apak et al.; Cu (II), neocuproine (2,9-dimethyl-1,10-phenanthroline), and NH4OAc buffer were added to the sample and standard solutions to achieve final concentrations of 10, 25, 50, and 100 μ g/mL. After an incubation period of 1 h, the absorbance was measured at 450 nm. BHA, BHT, and α -TOC were used as positive control ([Apak et al., 2004]).

P. aeruginosa ATCC 27853 = experiment: MIC, broth microdilution; assay type: cell-based; conditions: Pseudomonas aeruginosa, ATCC27853
Description: as §1, §2

[7] = system: Klebsiella pneumoniae ATCC 4352; experiment: MIC, broth microdilution; assay type: cell-based; conditions: K. pneumoniae ATCC 4352
Description: as §1, §2

[8] = system: Proteus mirabilis ATCC 14153; experiment: MIC, broth microdilution; assay type: cell-based; conditions: P. mirabilis ATCC 14153
Description: as §1, §2

[9] = system: Staphylococcus epidermidis ATCC 12228; experiment: MIC, broth microdilution; assay type: cell-based; conditions: S. epidermidis ATCC 12228
Description: as §1, §2

[10] = system: Escherichia coli ATCC 25922; experiment: MIC, broth microdilution; assay type: cell-based; conditions: E. coli ATCC 25922
Description: as §1, §2

[11] = system: Staphylococcus aureus ATCC 29213; experiment: MIC, broth microdilution; assay type: cell-based; conditions: S. aureus ATCC 29213
Description: as §1, §2

[12] = system: Candida albicans ATCC 10231; experiment: MIC, broth microdilution; assay type: cell-based; conditions: ATCC10231, C. albicans ATCC 10231
Description: as §1, §2

[13] = target: T1, Porcine pancreatic elastase (Sus scrofa, UniProt P00772); experiment: Anti-elastase assay; assay type: biochemical
T1 construct: Porcine pancreatic elastase (E.C. 3.4.21.36); from tissue; host or cells: porcine pancreas
T1 sequence (P00772 27-266): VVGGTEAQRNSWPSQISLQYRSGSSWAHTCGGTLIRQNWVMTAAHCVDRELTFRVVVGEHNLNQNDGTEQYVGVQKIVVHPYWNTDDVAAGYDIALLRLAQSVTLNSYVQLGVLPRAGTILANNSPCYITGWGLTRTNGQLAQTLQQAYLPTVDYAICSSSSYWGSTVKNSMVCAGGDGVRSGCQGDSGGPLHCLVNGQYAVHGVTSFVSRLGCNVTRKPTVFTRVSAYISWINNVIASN
Description: The elastase inhibition assay was conducted using a spectrophotometric method developed by [Lee et al. (1999)]. Porcine pancreatic elastase (E.C. 3.4.21.36) at a concentration of 3.33 mg/mL was used as the enzyme and dissolved in 0.2 mM Tris-HCl buffer (pH 8.0). The substrate, N-Succinyl-Ala-Ala-Ala-p-nitroanilide (SANA), was prepared in the same buffer at a concentration of 1.6 mM. For each reaction, 50 μ L of buffer, 25 μ L of enzyme solution, and 50 μ L of the test extract were pre-incubated at room temperature for 15 min before the addition of SANA. Epigallocatechin gallate (EGCG) was used as the positive control, while ethanol served as the negative control. The reaction was initiated by adding 125 μ L of the substrate solution to the mixture, followed by incubation at room temperature for 20 min. The absorbance change was then measured at 410 nm.

α-Glucosidase = conditions: flavonoids isolated from H. attenuatum; ref Jin et al., 2021; cited from earlier work

NCC[C@H](O)C(=O)N[C@@H]1C[C@H](N)[C@@H](O[C@H]2O[C@H](CN)[C@@H](O)[C@H](O)[C@H]2O)[C@H](O)[C@H]1O[C@H]1O[C@H](CO)[C@@H](O)[C@H](N)[C@H]1O [Amikacin]
MIC [1]: 128 µg/mL (≈ 219 µM)

C[C@@H]1[C@H](O)[C@@H](C)/C=C/C=C/C=C/C=C/C=C/C=C/C=C/[C@H](O[C@@H]2O[C@H](C)[C@@H](O)[C@H](N)[C@@H]2O)C[C@@H]2O[C@](O)(C[C@@H](O)C[C@@H](O)[C@H](O)CC[C@@H](O)C[C@@H](O)CC(=O)O[C@H]1C)C[C@H](O)[C@H]2C(=O)O [Amphotericin B]
MIC [2]: 1 µg/mL (≈ 1.08 µM)
MIC [3]: 0.5 µg/mL (≈ 0.541 µM)

COc1ccc(O)c(C(C)(C)C)c1 [BHA]
ABTS (% Inhibition) ([4]; 10 µg/mL): 63.94 ± 0.18%
ABTS (% Inhibition) ([4]; 25 µg/mL): 78.23 ± 1.08%
ABTS (% Inhibition) ([4]; 50 µg/mL): 87.41 ± 0.16%
ABTS (% Inhibition) ([4]; 100 µg/mL): 87.62%
DPPH (% Inhibition) ([5]; 10 µg/mL): 62.00 ± 0.90%
DPPH (% Inhibition) ([5]; 25 µg/mL): 71.86 ± 0.76%
DPPH (% Inhibition) ([5]; 50 µg/mL): 74.48 ± 0.35%
DPPH (% Inhibition) ([5]; 100 µg/mL): 75.23%
CUPRAC (Absorbance) ([6]; 10 µg/mL): 0.838 ± 0.03
CUPRAC (Absorbance) ([6]; 25 µg/mL): 1.647 ± 0.18
CUPRAC (Absorbance) ([6]; 50 µg/mL): 2.753 ± 0.09
CUPRAC (Absorbance) ([6]; 100 µg/mL): 3.769 ± 0.05 and 3.769

Cc1cc(C(C)(C)C)c(O)c(C(C)(C)C)c1 [BHT]
ABTS (% Inhibition) ([4]; 10 µg/mL): 76.35 ± 0.78%
ABTS (% Inhibition) ([4]; 25 µg/mL): 88.00 ± 2.49%
ABTS (% Inhibition) ([4]; 50 µg/mL): 88.96 ± 0.13%
ABTS (% Inhibition) ([4]; 100 µg/mL): 89.13%
DPPH (% Inhibition) ([5]; 10 µg/mL): 39.28 ± 1.03%
DPPH (% Inhibition) ([5]; 25 µg/mL): 60.68 ± 4.18%
DPPH (% Inhibition) ([5]; 50 µg/mL): 69.14 ± 1.84%
DPPH (% Inhibition) ([5]; 100 µg/mL): 76.17%
CUPRAC (Absorbance) ([6]; 10 µg/mL): 0.652 ± 0.01
CUPRAC (Absorbance) ([6]; 25 µg/mL): 1.211 ± 0.18
CUPRAC (Absorbance) ([6]; 50 µg/mL): 2.040 ± 0.31
CUPRAC (Absorbance) ([6]; 100 µg/mL): 3.559 ± 0.27 and 3.559

CC(C)(O/N=C(\C(=O)N[C@@H]1C(=O)N2C(C(=O)[O-])=C(C[n+]3ccccc3)CS[C@H]12)c1csc(N)n1)C(=O)O [Ceftazidime]
MIC (P. aeruginosa ATCC 27853): 2.4 µg/mL (≈ 4.39 µM)

CO/N=C(\C(=O)N[C@@H]1C(=O)N2C(C(=O)[O-])=C(COC(N)=O)CS[C@H]12)c1ccco1.[Na+] [Cefuroxime-Na]
MIC [7]: 4.9 µg/mL
MIC [8]: 2.4 µg/mL
MIC [9]: 9.8 µg/mL
MIC [10]: 4.9 µg/mL
MIC [11]: 1.2 µg/mL

Clc1ccccc1C(c1ccccc1)(c1ccccc1)n1ccnc1 [Clotrimazole]
MIC [12]: 4.9 µg/mL (≈ 14.2 µM)

C[C@H]1[C@H](C)CC[C@]2(C(=O)O)CC[C@]3(C)C(=CC[C@@H]4[C@@]5(C)CC[C@H](O)C(C)(C)[C@@H]5CC[C@]43C)[C@H]12 [Ursolic acid]
IC50 [13]: 30.2 µM

O=c1c(O[C@@H]2OC[C@H](O)[C@H](O)[C@H]2O)c(-c2ccc(O)c(O)c2)oc2cc(O)cc(O)c12 [guaijaverin]
IC50 (α-Glucosidase): 17.2 ± 0.75 µM

Cc1c(C)c2c(c(C)c1O)CC[C@@](C)(CCC[C@H](C)CCC[C@H](C)CCCC(C)C)O2 [α-TOC]
ABTS (% Inhibition) ([4]; 10 µg/mL): 65.39 ± 2.37%
ABTS (% Inhibition) ([4]; 25 µg/mL): 83.47 ± 0.98%
ABTS (% Inhibition) ([4]; 50 µg/mL): 85.89 ± 2.62%
ABTS (% Inhibition) ([4]; 100 µg/mL): 88.89%
DPPH (% Inhibition) ([5]; 10 µg/mL): 63.28 ± 3.28%
DPPH (% Inhibition) ([5]; 25 µg/mL): 73.51 ± 4.14%
DPPH (% Inhibition) ([5]; 50 µg/mL): 76.94 ± 0.71%
DPPH (% Inhibition) ([5]; 100 µg/mL): 78.07%
CUPRAC (Absorbance) ([6]; 10 µg/mL): 0.391 ± 0.01
CUPRAC (Absorbance) ([6]; 25 µg/mL): 0.904 ± 0.00
CUPRAC (Absorbance) ([6]; 50 µg/mL): 1.563 ± 0.09
CUPRAC (Absorbance) ([6]; 100 µg/mL): 2.460 ± 0.09 and 2.460

From article PMC12277336, “Hypericum empetrifolium subsp. empetrifolium: an assessment of its antifungal, antidiabetic, anti-aging, and neuroprotective potential” (Frontiers in Pharmacology, 2025)
